Assay results published in patent publication US20180265515A1 (Genentech, Inc., priority 2015, published 2018).

Key:
[1] = target: T1, isolated recombinant JAK2 kinase domain (Homo sapiens, UniProt O60674); assay: JAK2 enzyme assay (Caliper LabChip, Ki); assay type: biochemical; settings: 25 μM ATP
T1 construct: The activity of the isolated recombinant JAK1 and JAK2 kinase domain was measured
In short: (§1)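 Caliper LabChip read-out: fraction of FAM-labeled JAK3-derived peptide converted to phosphopeptide by isolated JAK1/JAK2 kinase domain. Reaction 30 min, 22° C; stopped with EDTA, 50 mM final. Ki via Morrison tight-binding model, Ki=Ki,app/(1+[ATP]/Km,app).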

[2] = target: T2, isolated recombinant JAK1 kinase domain (Homo sapiens, UniProt P23458); assay: JAK1 enzyme assay (Caliper LabChip, Ki); assay type: biochemical; settings: recombinant JAK1 kinase domain, 25 μM ATP
T2 construct: The activity of the isolated recombinant JAK1 and JAK2 kinase domain was measured
T2 sequence (P23458 875-1153 limits assumed): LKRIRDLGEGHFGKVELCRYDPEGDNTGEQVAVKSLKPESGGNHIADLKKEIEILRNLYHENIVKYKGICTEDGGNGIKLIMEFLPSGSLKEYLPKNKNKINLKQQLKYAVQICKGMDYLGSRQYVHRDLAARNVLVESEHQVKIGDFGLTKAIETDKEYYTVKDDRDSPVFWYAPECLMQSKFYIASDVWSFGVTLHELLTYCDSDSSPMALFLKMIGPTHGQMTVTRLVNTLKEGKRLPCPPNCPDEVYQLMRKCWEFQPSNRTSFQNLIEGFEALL
In short: as §1

[3] = system: JAK1-dependent STAT6 phosphorylation downstream of IL-13 stimulation in BEAS-2B human bronchial epithelial cells; assay: JAK1 pathway assay in BEAS-2B cells (IL-13 stimulated STAT6 phosphorylation, MSD); assay type: cell-based; settings: read-out: P-STAT6 BEAS2B + IL13 IC50
In short: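 BEAS-2B human bronchial epithelial cells, plated the day before in complete growth medium, were preincubated with compound for 1 hr at 37° C (0.2% DMSO final), then stimulated with IL-13 at its EC90 for 15 min. STAT6 phosphorylation in lysates was read by MSD; EC50 was taken as 50% inhibition versus DMSO control.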

T1 sequence (O60674 849-1124 limits assumed): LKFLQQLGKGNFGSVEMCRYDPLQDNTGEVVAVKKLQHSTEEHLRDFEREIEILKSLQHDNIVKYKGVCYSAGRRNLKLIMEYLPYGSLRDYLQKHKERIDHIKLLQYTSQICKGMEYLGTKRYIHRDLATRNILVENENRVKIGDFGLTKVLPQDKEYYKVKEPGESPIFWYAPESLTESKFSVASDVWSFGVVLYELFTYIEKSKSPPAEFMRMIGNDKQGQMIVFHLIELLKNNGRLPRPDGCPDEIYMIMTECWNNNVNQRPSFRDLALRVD

`CSc1ccc(OC(F)F)c(-c2nn(Cc3cn(C4CCN(C5CCOCC5)CC4)nn3)cc2NC(=O)c2cnn3cccnc23)c1` [Example 81, N-(3-(2-(difluoromethoxy)-5-(methylthio)phenyl)-1-((1-(1-(tetrahydro-2H-pyran-4-yl)piperidin-4-yl)-1H-1,2,3-triazol-4-yl)methyl)-1H-pyrazol-4-yl)pyrazolo[1,5-a]pyrimidine-3-carboxamide] showed a Ki [1] of 0.23 nM, a Ki [2] of 0.35 nM and an IC50 [3] of 8.1 nM.
`CC(C)Sc1ccc(OC(F)F)c(-c2nn(CC(=O)N3CCC(N4CCNC(=O)C4)CC3)cc2NC(=O)c2cnn3cccnc23)c1` [Example 108, N-[3-[2-(difluoromethoxy)-5-isopropylsulfanyl-phenyl]-1-[2-oxo-2-[4-(3-oxopiperazin-1-yl)-1-piperidyl]ethyl]pyrazol-4-yl]pyrazolo[1,5-a]pyrimidine-3-carboxamide] gave a Ki [1] of 0.94 nM, a Ki [2] of 0.37 nM and an IC50 [3] of 850 nM.
`CC(C)Sc1ccc(OC(F)F)c(-c2nn(CC(=O)N3CCC(C)(N4CCOCC4)CC3)cc2NC(=O)c2cnn3cccnc23)c1` [Example 132, N-[3-[2-(difluoromethoxy)-5-isopropylsulfanyl-phenyl]-1-[2-(4-methyl-4-morpholino-1-piperidyl)-2-oxo-ethyl]pyrazol-4-yl]pyrazolo[1,5-a]pyrimidine-3-carboxamide] was tested, and the Ki [1] was 1.2 nM, the Ki [2] was 0.67 nM and the IC50 [3] was 36 nM.
In the case of `COC(=O)N1CCN(CC2CCN(C(=O)Cn3cc(NC(=O)c4cnn5cccnc45)c(-c4cc(SC5CC5)ccc4OC(F)F)n3)CC2)CC1` [Example 173, methyl 4-[[1-[2-[3-[5-cyclopropylsulfanyl-2-(difluoromethoxy)phenyl]-4-(pyrazolo[1,5-a]pyrimidine-3-carbonylamino)pyrazol-1-yl]acetyl]-4-piperidyl]methyl]piperazine-1-carboxylate], the Ki [1] is reported as 0.83 nM, the Ki [2] is reported as 0.33 nM and the IC50 [3] is reported as 17 nM.
Compound `O=C(Nc1cn(Cc2cn(C3CCN(C4COC4)CC3)nn2)nc1-c1cc(SC2CC2)ccc1OC(F)F)c1cnn2cccnc12` [Example 174, N-[3-[5-cyclopropylsulfanyl-2-(difluoromethoxy)phenyl]-1-[[1-[1-(oxetan-3-yl)-4-piperidyl]triazol-4-yl]methyl]pyrazol-4-yl]pyrazolo[1,5-a]pyrimidine-3-carboxamide] has a Ki [1] of 0.21 nM, a Ki [2] of 0.27 nM and an IC50 [3] of 11 nM.
`CSc1ccc(OC(F)F)c(-c2nn(CC(=O)N3CCC(OCC(=O)N4CCN(C)CC4)CC3)cc2NC(=O)c2cnn3cccnc23)c1` [Example 71, N-(3-(2-(difluoromethoxy)-5-(methylthio)phenyl)-1-(2-(4-(2-(4-methylpiperazin-1-yl)-2-oxoethoxy)piperidin-1-yl)-2-oxoethyl)-1H-pyrazol-4-yl)pyrazolo[1,5-a]pyrimidine-3-carboxamide] showed a Ki [1] of 1.1 nM, a Ki [2] of 0.59 nM and an IC50 [3] of 83 nM.
Compound `CC(C)Sc1ccc(OC(F)F)c(-c2nn(CC(=O)N3CCN(CC4CCN(CC(=O)N(C)C)CC4)CC3)cc2NC(=O)c2cnn3cccnc23)c1` [Example 140, N-[3-[2-(difluoromethoxy)-5-isopropylsulfanyl-phenyl]-1-[2-[4-[[1-[2-(dimethylamino)-2-oxo-ethyl]-4-piperidyl]methyl]piperazin-1-yl]-2-oxo-ethyl]pyrazol-4-yl]pyrazolo[1,5-a]pyrimidine-3-carboxamide] has a Ki [1] of 1.7 nM, a Ki [2] of 0.63 nM and an IC50 [3] of 51 nM.
In the case of `CC(C)Sc1ccc(OC(F)F)c(-c2nn(CC(=O)N3CCN(CCCO)CC3)cc2NC(=O)c2cnn3cccnc23)c1` [Example 126, N-[3-[2-(difluoromethoxy)-5-isopropylsulfanyl-phenyl]-1-[2-[4-(3-hydroxypropyl)piperazin-1-yl]-2-oxo-ethyl]pyrazol-4-yl]pyrazolo[1,5-a]pyrimidine-3-carboxamide], the Ki [1] is reported as 0.84 nM, the Ki [2] is reported as 0.37 nM and the IC50 [3] is reported as 43 nM.
